In patent publication US9469617B2, “Molecules having certain pesticidal utilities, and intermediates, compositions, and processes related thereto” (priority 2014, dated 2016):
Like-named read-outs stand apart in the source and are kept apart here.

Assays:
Type in all cases: in vivo
[1] = system: Yellow Fever Mosquito (YFM) (Aedes aegypti); assay: Bioassay on Yellow Fever Mosquito (YFM) larvae, 96-well plate; conditions: about 1 day-old larvae, master plate 4000 ppm in DMSO diluted, scored on mortality after 3 days
Outline: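 Compounds from 4000 ppm DMSO master solutions, diluted in 90:10 water:acetone, dispensed into wells and infested with about 1-day-old larvae in liver-powder water. Held covered at room temperature for 3 days, then each well scored for mortality; 6 replicate plates per master.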

[2] = system: Green Peach Aphid (GPA) (Myzus persicae); assay: Bioassay on Green Peach Aphid (GPA), foliar spray on cabbage seedlings; conditions: 72 h, 200 ppm foliar spray on cabbage seedlings, graded after three days, Abbott corrected % control, read-out: GPA % Control (or Mortality) rating
Experimental: Certain molecules disclosed in this document were tested against GPA using procedures described in the following example. In the reporting of the results, the “GPA & YFM Rating Table” was used (See Table Section).
Cabbage seedlings grown in 3-inch pots, with 2-3 small (3-5 cm) true leaves, were used as test substrate. The seedlings were infested with 20-50 GPA (wingless adult and nymph stages) one day prior to chemical application. Four pots with individual seedlings were used for each treatment. Test compounds (2 mg) were dissolved in 2 mL of acetone/MeOH (1:1) solvent, forming stock solutions of 1000 ppm test compound. The stock solutions were diluted 5× with 0.025% Tween 20 in water to obtain the solution at 200 ppm test compound. A hand-held aspirator-type sprayer was used for spraying a solution to both sides of […] leaves until runoff. Reference plants (solvent check) were sprayed with the diluent only containing 20% by volume of acetone/MeOH (1:1) solvent. Treated plants were held in a holding room for three days at approximately 25° C. and ambient relative humidity (RH) prior to grading. Evaluation was conducted by counting the number of live aphids per plant under a microscope. Percent Control was measured by using Abbott's correction formula (W. S. Abbott, “A Method of Computing the Effectiveness of an Insecticide” J. Econ. Entomol. 18 (1925), pp. 265-267) as follows. Corrected % Control=100*(X−Y)/X where X=No. of live aphids on solvent check plants and Y=No. of live aphids on treated plants. The results are indicated in the table entitled “Table ABC: Assay Results” and “Table ABCD: Assay Results” (See Table Section).

[3] = system: Cabbage Looper (CL) (Trichoplusia ni); assay: Bioassay on Cabbage Looper (CL), 128-well diet tray assay; conditions: 168 h, 50 μg/cm^2 on artificial diet, second instar larvae, five to seven days, 25° C., read-out: CL % Control (or Mortality) rating
Outline: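 Second-instar larvae (one to five per well) placed on artificial diet treated with 50 μg/cm^2 compound in 90:10 acetone-water, dried, eight wells per compound. Held at 25 °C, 14:10 light-dark for five to seven days; percent mortality per well, averaged over the eight wells.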

[4] = system: Beet Armyworm (BAW) (Spodoptera exigua); assay: Bioassay on Beet Armyworm (BAW), 128-well diet tray assay; conditions: 168 h, 50 μg/cm^2 on artificial diet, second instar larvae, five to seven days, 25° C., read-out: BAW % Control (or Mortality) rating
Outline: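 Artificial diet was surface-treated with 50 μg/cm^2 compound in 90:10 acetone-water and dried, then infested with one to five second-instar larvae per well. Trays were held 5–7 days at 25° C, 14:10 light-dark. Percent mortality was averaged over eight wells.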

Row | Compound | YFM % Control (or Mortality) rating ([1]; Table ABCD) | mortality at 200 ppm ([2]; Table ABCD) | mortality at 50 µg/cm2 ([3]; Table ABCD) | mortality at 50 µg/cm2 ([4]; Table ABCD) | YFM % Control (or Mortality) rating ([1]; Table ABC) | mortality at 200 ppm ([2]; Table ABC) | mortality at 50 µg/cm2 ([3]; Table ABC) | mortality at 50 µg/cm2 ([4]; Table ABC)
1 | CC(C)(C)OC(=O)NC1Cc2ccc(-c3ncn(-c4ccc(OC(F)(F)F)cc4)n3)cc2C1 (stereo not shown) [C1, tert-butyl (5-(1-(4-(trifluoromethoxy)phenyl)-1H-1,2,4-triazol-3-yl)-2,3-dihydro-1H-inden-2-yl)carbamate] | A (80-100) | 0 to 80% | 50 to 100% | 50 to 100% |  |  |  | 
2 | Cc1ccc(C(C)C)c(N2C(=O)CS/C2=N\C(=O)NC2Cc3ccc(-c4ncn(-c5ccc(OC(F)(F)F)cc5)n4)cc3C2)c1 (stereo not shown) [F2, (Z)-1-(3-(2-isopropyl-5-methylphenyl)-4-oxothiazolidin-2-ylidene)-3-(5-(1-(4-(trifluoromethoxy)phenyl)-1H-1,2,4-triazol-3-yl)-2,3-dihydro-1H-inden-2-yl)urea] |  |  |  |  | A (80-100) | 0 to 80% | 50 to 100% | 50 to 100%
3 | Cc1ccc(C(C)C)c(N2C(=O)CS/C2=N\C(=O)NC2Cc3ccc(-c4ncn(-c5ccc(OC(F)(F)C(F)(F)F)cc5)n4)cc3C2)c1 (stereo not shown) [F4, (Z)-1-(3-(2-Isopropyl-5-methylphenyl)-4-oxothiazolidin-2-ylidene)-3-(5-(1-(4-(perfluoroethoxy)phenyl)-1H-1,2,4-triazol-3-yl)-2,3-dihydro-1H-inden-2-yl)urea] |  |  |  |  | A (80-100) | 0 to 80% | 50 to 100% | 50 to 100%
4 | CCc1ccccc1N1C(=O)CS/C1=N\C(=O)NC1Cc2ccc(-c3ncn(-c4ccc(OC(F)(F)F)cc4)n3)cc2C1 (stereo not shown) [F12, (Z)-1-(3-(2-Ethylphenyl)-4-oxothiazolidin-2-ylidene)-3-(5-(1-(4-(trifluoromethoxy)phenyl)-1H-1,2,4-triazol-3-yl)-2,3-dihydro-1H-inden-2-yl)urea] |  |  |  |  | A (80-100) | 0% | 50 to 100% | 50 to 100%
5 | CCCc1ccc(C)cc1N1C(=O)CS/C1=N\C(=O)NC1Cc2ccc(-c3ncn(-c4ccc(OC(F)(F)F)cc4)n3)cc2C1 (stereo not shown) [F13, (Z)-1-(3-(5-Methyl-2-propylphenyl)-4-oxothiazolidin-2-ylidene)-3-(5-(1-(4-(trifluoromethoxy)phenyl)-1H-1,2,4-triazol-3-yl)-2,3-dihydro-1H-inden-2-yl)urea] |  |  |  |  | A (80-100) | 0 to 80% | 50 to 100% | 50 to 100%
6 | O=C(/N=C1\SCC(=O)N1c1ccccc1C1CC1)NC1Cc2ccc(-c3ncn(-c4ccc(OC(F)(F)F)cc4)n3)cc2C1 (stereo not shown) [F15, (Z)-1-(3-(2-Cyclopropylphenyl)-4-oxothiazolidin-2-ylidene)-3-(5-(1-(4-(trifluoromethoxy)phenyl)-1H-1,2,4-triazol-3-yl)-2,3-dihydro-1H-inden-2-yl)urea] |  |  |  |  | A (80-100) | 0 to 80% | 50 to 100% | 50 to 100%
7 | CC1S/C(=N\C(=O)NC2Cc3ccc(-c4ncn(-c5ccc(OC(F)(F)F)cc5)n4)cc3C2)N(c2ccccc2C(C)C)C1=O (stereo not shown) [FA2, (Z)-1-(3-(2-isopropylphenyl)-5-methyl-4-oxothiazolidin-2-ylidene)-3-(5-(1-(4-(trifluoromethoxy)phenyl)-1H-1,2,4-triazol-3-yl)-2,3-dihydro-1H-inden-2-yl)urea] |  |  |  |  | A (80-100) | 0 to 80% | 50 to 100% | 50 to 100%
8 | CCCc1ccc(C)cc1N1C(=O)CS/C1=N\C(=O)NC1CCc2cc(-c3ncn(-c4ccc(OC(F)(F)F)cc4)n3)ccc2C1 (stereo not shown) [P34, (Z)-1-(3-(5-Methyl-2-propylphenyl)-4-oxothiazolidin-2-ylidene)-3-(6-(1-(4-(trifluoromethoxy)phenyl)-1H-1,2,4-triazol-3-yl)-1,2,3,4-tetrahydronaphthalen-2-yl)urea] |  |  |  |  | D (No activity noticed in this bioassay) |  | 50 to 100% | 50 to 100%
9 | COc1ccc(N2C(=O)CS/C2=N\C(=O)NC2CCc3cc(-c4ncn(-c5ccc(OC(F)(F)F)cc5)n4)ccc3C2)c(C)c1 (stereo not shown) [P35, (Z)-1-(3-(4-methoxy-2-methylphenyl)-4-oxothiazolidin-2-ylidene)-3-(6-(1-(4-(trifluoromethoxy)phenyl)-1H-1,2,4-triazol-3-yl)-1,2,3,4-tetrahydronaphthalen-2-yl)urea] |  |  |  |  | A (80-100) |  | 50 to 100% | 50 to 100%
10 | CCc1cccc(C)c1N1C(=O)CS/C1=N\C(=O)NC1CCc2cc(-c3ncn(-c4ccc(OC(F)(F)F)cc4)n3)ccc2C1 (stereo not shown) [P36, (Z)-1-(3-(2-Ethyl-6-methylphenyl)-4-oxothiazolidin-2-ylidene)-3-(6-(1-(4-(trifluoromethoxy)phenyl)-1H-1,2,4-triazol-3-yl)-1,2,3,4-tetrahydronaphthalen-2-yl)urea] |  |  |  |  | A (80-100) |  | 50 to 100% | 50 to 100%
11 | Cc1ccc(Cl)c(N2C(=O)CS/C2=N\C(=O)NC2CCc3cc(-c4ncn(-c5ccc(OC(F)(F)F)cc5)n4)ccc3C2)c1 (stereo not shown) [P37, (Z)-1-(3-(2-Chloro-5-methylphenyl)-4-oxothiazolidin-2-ylidene)-3-(6-(1-(4-(trifluoromethoxy)phenyl)-1H-1,2,4-triazol-3-yl)-1,2,3,4-tetrahydronaphthalen-2-yl)urea] |  |  |  |  | D (No activity noticed in this bioassay) |  | 50 to 100% | 50 to 100%
12 | COc1ccc(C)cc1N1C(=O)CS/C1=N\C(=O)NC1CCc2cc(-c3ncn(-c4ccc(OC(F)(F)F)cc4)n3)ccc2C1 (stereo not shown) [P38, (Z)-1-(3-(2-Methoxy-5-methylphenyl)-4-oxothiazolidin-2-ylidene)-3-(6-(1-(4-(trifluoromethoxy)phenyl)-1H-1,2,4-triazol-3-yl)-1,2,3,4-tetrahydronaphthalen-2-yl)urea] |  |  |  |  | A (80-100) |  | 50 to 100% | 50 to 100%
